In US7470821B2, “Aldolase-inhibiting aromatic compounds” (Valorisation-Recherche, Limited Partnership, priority 2003, dated 2008):
Read-outs that look alike come from different tables or passages of the source. Values belong to the molecule of their own block, whether it stands above or below them.

Tests used:
rabbit muscle aldolase = target: T1, rabbit muscle aldolase (Oryctolagus cuniculus, UniProt P00883); settings: cited from earlier work; for Ki: Blonski et al., 1997
T1 sequence (P00883 1-364): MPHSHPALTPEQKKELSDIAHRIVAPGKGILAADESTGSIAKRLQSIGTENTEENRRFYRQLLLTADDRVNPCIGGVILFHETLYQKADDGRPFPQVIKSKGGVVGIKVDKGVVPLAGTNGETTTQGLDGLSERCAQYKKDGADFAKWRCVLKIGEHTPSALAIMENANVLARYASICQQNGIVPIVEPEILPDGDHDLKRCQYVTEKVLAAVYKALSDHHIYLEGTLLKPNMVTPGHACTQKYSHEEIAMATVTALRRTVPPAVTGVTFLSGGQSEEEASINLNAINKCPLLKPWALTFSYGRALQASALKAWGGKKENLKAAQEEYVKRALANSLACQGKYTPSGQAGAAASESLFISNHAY

[1] = target: T2, native aldolase from rabbit muscle (RM) (Oryctolagus cuniculus, UniProt P00883); experiment: Aldolase activity by coupled enzyme test (TIM/GDH), inactivation and reactivation kinetics; format: biochemical
T2 construct: made in house
T2 sequence (P00883 1-364): T1 sequence (P00883 1-364)
Description: Aldolase activity was measured using a coupled enzyme test system: the triose-phosphate isomerase and glycerol-3-phosphate deshydrogenase (TIM/GDH) system, following oxidation of the NADH (Boehringer-Mannheim, France) at 340 nm, by means of a SAFAS spectrophotometer preheated to 25° C. Testing began with the addition of the substrate (Fru(1.6)P2; […] in final concentration), to complete an aldolase solution created in a triethanolamine buffer (TEA buffer) (100 Mm TEA/HCl; 50 mM NaCl; 1 mM EDTA, pH 7.6; ionic strength 0.15), 0.42 mM of NADH, and containing both enzyme systems (10 μg/mL of GDH and 1 μg/mL of TIM) for a final volume of 1 mL. The construction, overexpression and purification of recombinant aldolase were carried out in accordance with Morris A. J. et al., 1993 (J. Biol. Chem., 265:1095-1100) and Berthiaume L. et al., 1993 (J. Biol. Chem., 268:10826-10835).
The substrate cleavage rate was determined by measuring the decrease in absorbance/minute at 340 nm. The aldolase was dialyzed overnight at 4° C. against a TEA buffer prior to use. The protein concentration was determined by spectrophotometry, using ε280=0.91 mL.mg^−1.cm^−1 as an extinction coefficient. Subunit concentration was determined on the basis of a molecular weight of 159,000 for an aldolase tetramer. • Kinetic Method:
In the extreme situation where k−2 approaches zero, a reversible slow-binding inhibitor may resemble an irreversible one directed toward the active site. In this situation, the equation eqn.(3) is used for this type of inhibition (Meloche H. P., 1967, Biochemistry, 6:2273-2280). The semi-inactivation time of the enzyme (t1/2) is defined as a function of the mutual inhibitor concentration and is graphically represented by a straight line crossing the Y-axis at […] and crossing the X-axis at −1/Ki. • Experimental Protocol:
Native aldolase (5 μM of subunits) is incubated in the presence of FHN-P (0.05-1 mM) in TEA buffer. Enzyme activity is analyzed as a function of time using 10 μl aliquot portions.
Inactivation kinetics follow pseudo-first-order kinetics, and kinetic parameters Ki and k2 are determined by using the equation eqn.(3). To determine the reactivation rate, aldolase (25 μM of subunits in the TEA buffer) is incubated with 500 μM of FHN-P until reaching 90% inactivation. Excess inhibitor is removed by ultrafiltration with a PM-30 Millipore membrane. The enzyme-inhibitor complex is incubated in the TEA buffer (15 μM of subunits at final concentration) containing hexitol-P2 (10 mM). Aliquot portions (10 μl) are removed at different times to measure aldolase activity.
Controls involve repeating the protocol without FHN-P. The reactivation process is analyzed as if it were a first-order reaction. • Monitored by UV-Visible Differential Spectroscopy.

[2] = rabbit muscle aldolase, read-out: dissociation constant (or inhibition constant) Ki

SMILES: O=Cc1ccc(OP(=O)(O)O)cc1O [2-hydroxybenzaldehyde-4-phosphate]
reduction of aldolase activity (rabbit muscle aldolase; inhibitor concentration of around 200 μM): 80%
Ki (rabbit muscle aldolase; reversible time-dependent inhibitor, read-out: global inhibition constant Ki*): 35 ± 5 µM

aldolase inactivation (in words) ([1]; 250 μM, same conditions as Table 1): totally inactive
Specific activity ([1]; RM 0.2 mg/mL, compound 250 μM, TEA buffer pH 7.6, 80 min incubation, RM alone 12.5 ± 0.5): 12.5 ± 0.5 Unit/mg
SMILES: O=Cc1ccc2cc(O)ccc2c1O [DHNA, 1,6-dihydroxy-2-naphthaldehyde, reference compound]

SMILES: O=Cc1ccc(OP(=O)(O)O)cc1 [HBA-P, benzaldehyde-4-phosphate]
Ki (rabbit muscle aldolase; [2]): ~500 µM

SMILES: O=P(O)(O)Oc1ccc(OP(=O)(O)O)cc1 [HQN-P2]
Ki (rabbit muscle aldolase; [2]): ~135 µM

SMILES: O=P(O)(O)Oc1cccc(OP(=O)(O)O)c1 [RSN-P2]
Ki (rabbit muscle aldolase; [2]): ~50 µM
